A short description of data set [1]: Aqueous kinetic solubility of the compound in PBS buffer at pH 7.4. In kind it is physicochemical. Conditions: read-out: Kinetic_solubility.
Data set [2] is described as follows: Apparent permeability of the compound from apical to basolateral side of MDCK cells. It counts as ADME, cell-based, Canis lupus familiaris. Conditions: dog.

Each structure is given as a SMILES string. Values after ≈ are worked out from the molar mass of the structure shown.

From ChEMBL document CHEMBL2434881, “Design and evaluation of novel 8-oxo-pyridopyrimidine Jak1/2 inhibitors” (Bioorg Med Chem Lett, 2013) come the findings set out here.

As for `N#C[C@H]1CCC[C@H]1Nc1nc(N2CCCCC2)nc2c(=O)[nH]ccc12` (racemic), the solubility kinetic in data set [1] was found to be 8.6 µM (≈ 2.91 µg/mL).
Same read-out and setting: the same measure for `CN(CCO)c1nc(N[C@@H]2CCC[C@@H]2C#N)c2cc[nH]c(=O)c2n1` (racemic): 19 µM (≈ 6.24 µg/mL); for `N#CC1CCCC1Nc1ncnc2c(=O)[nH]ccc12` (single isomer, unassigned; enantiomer 1): 119 µM (≈ 30.4 µg/mL); for `N#C[C@H]1CCC[C@H]1Nc1ncnc2c(=O)[nH]ccc12` (racemic): 104 µM (≈ 26.5 µg/mL).
In the case of `CNc1nc(N[C@@H]2CCC[C@@H]2C#N)c2cc[nH]c(=O)c2n1` (racemic), the solubility kinetic in data set [1] is 74 µM (≈ 21 µg/mL).
For `O=c1[nH]ccc2c(NC3CCCC3)ncnc12`, the apical-to-basolateral permeability (Papp A→B) in data set [2] turned out to be 2.5 ×10⁻⁶ cm/s. The solubility kinetic in data set [1] came to 318 µM (≈ 73.2 µg/mL).
`N#C[C@H]1CCC[C@H]1Nc1nc(-c2ccccc2)nc2c(=O)[nH]ccc12` (racemic): the solubility kinetic in data set [1] was 11 µM (≈ 3.65 µg/mL).
For the compound `CCc1nc(N[C@@H]2CCC[C@@H]2C#N)c2cc[nH]c(=O)c2n1` (racemic), the apical-to-basolateral permeability (Papp A→B) in data set [2] was 0.6 ×10⁻⁶ cm/s. The solubility kinetic in data set [1] amounted to 140 µM (≈ 39.7 µg/mL).
The matching figures for `N#C[C@H]1CCC[C@H]1Nc1nc(-c2cn[nH]c2)nc2c(=O)[nH]ccc12` (racemic): 0.2 ×10⁻⁶ cm/s and 24 µM (≈ 7.71 µg/mL).
With `O=c1[nH]ccc2c(NC3CCCCC3)ncnc12`, the solubility kinetic in data set [1] is 225 µM (≈ 55 µg/mL).
On to `N#C[C@H]1CCC[C@H]1Nc1nc(N2CCOCC2)nc2c(=O)[nH]ccc12` (racemic), for which the solubility kinetic in data set [1] worked out at 51 µM (≈ 17.4 µg/mL).
